One test has as its system IL-1β. Put plainly: IL-1β expression in LPS stimulated PBMCs (Meso Scale). The note with it: Homo sapiens, PBMC, compound concentration 10 μM. The format is cell-based, human. The method, boiled down: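 Human PBMCs (200,000 cells/well in RPMI-1640/10% FBS) were pretreated with compound for 1 h, then stimulated with 100 ng/mL LPS for 18-24 h. IL-1β in supernatant was measured by Meso Scale assay. Activity is expressed as percentage of LPS-induced level, with DMSO-treated wells as negative control.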

For the next test, the system named is Molm-13 cells. Put plainly: Molm-13 cell viability (CellTiter-Glo). The note with it: Homo sapiens, MOLM-13; compound concentration 10 μM; read-out: % Inhibition (MOLM-13 Cell Viability). The format is cell-based. The essentials:
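Molm-13 (RPMI-1640, 10% FBS) and H1048 (DMEM:F12, 5% FBS with supplements) plated at 20,000 cells/well, treated with compound or 0.1% DMSO for 3 days at 37° C., 5% CO2. Viability read by CellTiter-Glo luminescence after 10 min.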

The test system of another test is IL-6. The test can be described thus: IL-6 expression in LPS stimulated PBMCs (Meso Scale). The format is cell-based, human. As to conditions: Homo sapiens, PBMC; compound concentration 10 μM; LPS-stimulated PBMCs. The essentials:
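Thawed human PBMCs at 200,000 cells/well in RPMI-1640/10% FBS were pretreated with compound or DMSO for 1 h, then stimulated with 100 ng/mL LPS for 18–24 h. Supernatant IL-6 was measured by Meso Scale assay and expressed as % of LPS-induced activity.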

A further test has as its system TNF-α. Put plainly: TNF-α expression in LPS stimulated PBMCs (Meso Scale). As to conditions: Homo sapiens, PBMC, compound concentration 10 μM. The format is cell-based, human. The essentials:
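Thawed primary human PBMCs, 200,000 cells/well in RPMI-1640/10% FBS, pretreated with compound 1 h, then stimulated with 100 ng/mL LPS for 18-24 h. Supernatant TNF-α measured by Meso Scale assay; activity expressed as percentage of LPS-induced level, DMSO as negative control.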

For another test, the system named is IL-2. The test can be described thus: anti-CD3-induced IL-2 secretion in PBMCs. The format is cell-based. As to conditions: Homo sapiens, PBMC; compound concentration 10 μM; anti-CD3 stimulated PBMCs, 24 h; DMSO = 1.0; read-out: Fold Change IL-2. As to the method:
FIGS. 4 and 9D are graphs showing anti-CD3-induced IL-2 secretion in PBMCs. 1 ug/mL anti-CD3 (OKT-3) antibody in PBS were coated onto 96-well plates overnight at 4° C. Approximately 550,000 PBMCs were added to each well, followed by addition of DMSO only, Compound 1-8 at 10 μM (FIG. 4) or Compound 9 at 0.1 μM or 1 μM (FIG. 9D), or 10 μM lenalidomide (rev). Induction was measured after 24 h as fold difference from the DMSO stimulated control.
For the IL-2 analysis, 96 well plates were precoated with 1 ug/mL anti-human CD3 antibody (OKT3, eBioscience Inc.). After washing with PBS, compounds were added to the wells (50 μL/well) followed by PBMCs diluted at 3-4 million cells/mL (150 μL/well). Plates were incubated for 24 h and the supernatants collected for Mesoscale IL-2 analysis.
Compound activity was measured as fold difference from the DMSO control. IL-1-beta activity is shown in FIG. 1; IL-6 activity is shown in FIG. 2; TNF-α activity is shown in FIG. 3; and IL-2 activity is shown in FIG. 4.

The inhibition is the drop in the measured response relative to a control, in per cent. Higher therefore signals a strong effect. Turning to `Cc1scc2c1CN([C@H]1CCCC(=O)NC1=O)C2=O` [Compound 8, (S)-3-(1-methyl-4-oxo-4H-thieno[3,4-c]pyrrol-5(6H)-yl)azepane-2,7-dione], the inhibition at 10 µM in the test with IL-1β came out at 80%; with IL-6 it was 71%; in the test with TNF-α it was 71%. For the same molecule, the cytotoxicity at 10 µM in the test with Molm-13 cells is 42%. In the test on IL-2, the fold induction at 10 µM turned out to be 1.

For `O=C1CCC[C@H](N2Cc3c(csc3C3CCCC3)C2=O)C(=O)N1` [Compound 10, (S)-3-(1-Cyclopentyl-4-oxo-4H-thieno[3,4-c]pyrrol-5(6H)-yl)azepane-2,7-dione], the results for the inhibition at 10 µM in the test on IL-1β, in the test with IL-6 and in the test on TNF-α were 21%, 13% and 37%, respectively. In addition, in the test on Molm-13 cells, the cytotoxicity at 10 µM was 18%. In addition, the fold induction at 10 µM in the test on IL-2 is 0.6.

Regarding `Cc1cc2c(s1)CN([C@H]1CCCC(=O)NC1=O)C2=O` [Compound 11, (S)-3-(2-Methyl-4-oxo-4,6-dihydro-5H-thieno[2,3-c]pyrrol-5-yl)azepane-2,7-dione], the inhibition at 10 µM was 65% in the test with IL-1β, 26% in the test with IL-6 and 46% in the test with TNF-α. The cytotoxicity at 10 µM in the test with Molm-13 cells was found to be 18%. Moreover, in the test on IL-2, the fold induction at 10 µM came out at 2.6.

On to `CC(C)c1scc2c1CN([C@H]1CCCC(=O)NC1=O)C2=O` [Compound 12, (S)-3-(1-Isopropyl-4-oxo-4H-thieno[3,4-c]pyrrol-5(6H)-yl)azepane-2,7-dione], for which the figures for the inhibition at 10 µM in the test on IL-1β, in the test on IL-6 and with TNF-α were 52%, 0% and 56%, respectively. For the same molecule, in the test on Molm-13 cells, the cytotoxicity at 10 µM turned out to be 31%. In the test with IL-2, the fold induction at 10 µM amounted to 0.8.

Consider `O=C1CCC[C@H](N2Cc3c(csc3Br)C2=O)C(=O)N1` [Compound 13, (S)-3-(1-Bromo-4-oxo-4H-thieno[3,4-c]pyrrol-5(6H)-yl)azepane-2,7-dione], for which the inhibition at 10 µM in the test on IL-1β is 90%; in the test on IL-6 it was 66%; in the test with TNF-α, 84%. For the same molecule, the cytotoxicity at 10 µM in the test with Molm-13 cells was determined as 0%. In the test with IL-2, the fold induction at 10 µM was determined as 1.2.

As to `O=C1CCC[C@H](N2Cc3sc(Br)cc3C2=O)C(=O)N1` [Compound 14, (S)-3-(2-Bromo-4-oxo-4,6-dihydro-5H-thieno[2,3-c]pyrrol-5-yl)azepane-2,7-dione], the results for the inhibition at 10 µM in the test with IL-1β, in the test with IL-6 and in the test on TNF-α were 88%, 65% and 85%, respectively. In addition, the cytotoxicity at 10 µM in the test with Molm-13 cells is 0%. Also, in the test with IL-2, the fold induction at 10 µM worked out at 1.5.

On to `O=C1CCC[C@H](N2C(=O)c3csc([N+](=O)[O-])c3C2=O)C(=O)N1` [Compound 15, (S)-5-(2,7-Dioxoazepan-3-yl)-1-nitro-4H-thieno[3,4-c]pyrrole-4,6(5H)-dione], for which the inhibition at 10 µM was determined as 67% in the test with IL-1β, 56% with IL-6 and 55% with TNF-α. For the same molecule, the cytotoxicity at 10 µM in the test on Molm-13 cells is 19%. In the test on IL-2, the fold induction at 10 µM is 0.7.

Consider `Nc1scc2c1C(=O)N([C@H]1CCCC(=O)NC1=O)C2=O` [Compound 16, (S)-1-Amino-5-(2,7-dioxoazepan-3-yl)-4H-thieno[3,4-c]pyrrole-4,6(5H)-dione], for which the results for the inhibition at 10 µM in the test with IL-1β, in the test with IL-6 and in the test with TNF-α were 80%, 51% and 78%, respectively. In addition, the cytotoxicity at 10 µM with Molm-13 cells was 23%. The fold induction at 10 µM in the test with IL-2 amounted to 2.2.

Consider `N#Cc1scc2c1CN([C@H]1CCCC(=O)NC1=O)C2=O` [Compound 17, (S)-5-(2,7-Dioxoazepan-3-yl)-4-oxo-5,6-dihydro-4H-thieno[3,4-c]pyrrole-1-carbonitrile], for which the inhibition at 10 µM in the test with IL-1β came out at 4%; with IL-6, 14%; in the test on TNF-α, 26%. Moreover, the cytotoxicity at 10 µM in the test with Molm-13 cells was found to be 21%. For the same molecule, the fold induction at 10 µM with IL-2 worked out at 1.

For the origin of these results see patent US10040804B2, “Compounds targeting proteins, compositions, methods, and uses thereof” (BioTheryX, Inc., priority 2016, dated 2018).
